# Laboratory results from patent US9999622B2, “Pyrazolothiazole compound and medicine comprising same” (NIPPON SHINYAKU CO., LTD., priority 2014, dated 2018).
# Columns and labels:
# Format in all cases: biochemical
# [1] = target: T1, JAK3 (Homo sapiens, UniProt P52333); assay: JAK tyrosine kinase inhibitory activity in the presence of 1 mM ATP (ELISA), JAK3
# T1 construct: purchased Carna Biosciences, Inc
# T1 sequence (P52333 1-1124): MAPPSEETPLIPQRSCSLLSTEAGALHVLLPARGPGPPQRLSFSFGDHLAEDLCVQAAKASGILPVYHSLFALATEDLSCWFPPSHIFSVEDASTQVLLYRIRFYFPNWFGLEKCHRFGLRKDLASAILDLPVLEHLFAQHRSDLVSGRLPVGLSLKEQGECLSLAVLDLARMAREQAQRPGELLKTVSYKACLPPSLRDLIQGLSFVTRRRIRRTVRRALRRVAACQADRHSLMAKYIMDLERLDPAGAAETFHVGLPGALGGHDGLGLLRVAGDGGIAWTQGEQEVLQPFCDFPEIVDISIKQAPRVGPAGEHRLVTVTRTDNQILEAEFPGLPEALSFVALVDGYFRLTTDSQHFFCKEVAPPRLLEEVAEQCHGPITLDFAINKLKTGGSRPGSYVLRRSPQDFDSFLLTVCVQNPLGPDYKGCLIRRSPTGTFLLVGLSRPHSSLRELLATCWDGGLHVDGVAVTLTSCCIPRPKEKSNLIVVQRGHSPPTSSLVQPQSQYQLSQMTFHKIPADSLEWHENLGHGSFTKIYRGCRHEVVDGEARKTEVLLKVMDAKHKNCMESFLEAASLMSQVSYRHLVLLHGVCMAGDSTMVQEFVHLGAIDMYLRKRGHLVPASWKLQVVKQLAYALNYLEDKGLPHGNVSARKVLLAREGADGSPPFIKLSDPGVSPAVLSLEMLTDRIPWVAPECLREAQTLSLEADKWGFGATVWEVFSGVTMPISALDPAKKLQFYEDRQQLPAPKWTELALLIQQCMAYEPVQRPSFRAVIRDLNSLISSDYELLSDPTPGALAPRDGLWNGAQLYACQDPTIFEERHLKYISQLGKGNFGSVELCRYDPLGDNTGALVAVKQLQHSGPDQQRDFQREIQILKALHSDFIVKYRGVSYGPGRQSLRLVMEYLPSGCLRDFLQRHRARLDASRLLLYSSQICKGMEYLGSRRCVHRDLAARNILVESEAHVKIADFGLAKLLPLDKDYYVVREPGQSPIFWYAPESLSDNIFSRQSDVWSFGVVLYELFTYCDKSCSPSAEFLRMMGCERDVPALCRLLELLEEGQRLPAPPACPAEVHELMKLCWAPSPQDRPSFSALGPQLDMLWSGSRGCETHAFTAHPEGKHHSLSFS
# Experimental: (§1) 1. Preparation of Test Compound
# (§2) The test compound was dissolved in dimethyl sulfoxide (DMSO) to 10 mM and further diluted with DMSO to the concentrations of 1000, 100, 10, 1, 0.1 and 0.01 μM, respectively. For JAK1, these solutions of the test compound at the six concentrations 10 mM, 1000 μM, 100 μM, 10 μM, 1 μM and 0.1 μM were used. For JAK2 and JAK3, these solutions of the test compound at the six concentrations 1000 μM, 100 μM, 10 μM, 1 μM, 0.1 μM and 0.01 μM were used. The test compound solutions were diluted further to 20-fold with an assay buffer to obtain a sample solution. 15 mM Tris-HCl (pH7.5), 0.01 (v/v) % Tween-20 and 1 mM dithiothreitol were used as an assay buffer. DMSO was diluted to 20-fold with the assay buffer and was used as a negative control.
# (§3) 2. JAK Tyrosine Kinase Inhibitory Activity in the Presence of 1 mM Atp
# (§4) The activity was determined by ELISA method. Each of the sample solutions was added to a streptavidine coated 96-well plate (DELFIA Strip Plate 8×12 well, PerkinElmer) at 10 μL/well (n=2). […] Finally, JAK tyrosine kinase (Carna Biosciences, Inc.), which was previously diluted with the assay buffer to 7.5 nM for JAK1 and 0.75 nM for JAK2 and JAK3, was added to the plate at 20 μL/well, and the plate was incubated at 30° C. for 1 h. The plate was washed four times with buffer (50 mM Tris-HCl (pH 7.5), 150 mM NaCl, 0.02 (v/v) % Tween-20). A blocking buffer (0.1% Bovine Serum Albumin, 50 mM Tris-HCl (pH 7.5), 150 mM NaCl, 0.02 (v/v) % Tween-20) was added to the plate at 150 μL/well and the plate was blocked at 30° C. for 1 h. The blocking buffer was removed, and a horse radish peroxidase-labeled anti-phosphorylated tyrosine antibody (BD Biosciences, Inc.) (diluted to 10000-fold with the blocking buffer) was added to the plate at 100 μL/well, and the plate was incubated at 30° C. for 30 min. The plate was washed with the washing buffer four times, and 3,3′,5,5′-tetramethylbenizidine solution (Nacalai Tesque) was added to the plate at 100 μL/well to develop the color for 10 minutes. To the plate was added 0.1 M sulfuric acid at 100 μL/well to stop the reaction. The absorbance at 450 nm was measured using a microplate reader (BIO-RAD).
# (§5) 3. Analysis of the Results
# [2] = target: T2, JAK2 (Homo sapiens, UniProt O60674); assay: JAK tyrosine kinase inhibitory activity in the presence of 1 mM ATP (ELISA), JAK2
# T2 construct: purchased Carna Biosciences, Inc
# T2 sequence (O60674 whole entry): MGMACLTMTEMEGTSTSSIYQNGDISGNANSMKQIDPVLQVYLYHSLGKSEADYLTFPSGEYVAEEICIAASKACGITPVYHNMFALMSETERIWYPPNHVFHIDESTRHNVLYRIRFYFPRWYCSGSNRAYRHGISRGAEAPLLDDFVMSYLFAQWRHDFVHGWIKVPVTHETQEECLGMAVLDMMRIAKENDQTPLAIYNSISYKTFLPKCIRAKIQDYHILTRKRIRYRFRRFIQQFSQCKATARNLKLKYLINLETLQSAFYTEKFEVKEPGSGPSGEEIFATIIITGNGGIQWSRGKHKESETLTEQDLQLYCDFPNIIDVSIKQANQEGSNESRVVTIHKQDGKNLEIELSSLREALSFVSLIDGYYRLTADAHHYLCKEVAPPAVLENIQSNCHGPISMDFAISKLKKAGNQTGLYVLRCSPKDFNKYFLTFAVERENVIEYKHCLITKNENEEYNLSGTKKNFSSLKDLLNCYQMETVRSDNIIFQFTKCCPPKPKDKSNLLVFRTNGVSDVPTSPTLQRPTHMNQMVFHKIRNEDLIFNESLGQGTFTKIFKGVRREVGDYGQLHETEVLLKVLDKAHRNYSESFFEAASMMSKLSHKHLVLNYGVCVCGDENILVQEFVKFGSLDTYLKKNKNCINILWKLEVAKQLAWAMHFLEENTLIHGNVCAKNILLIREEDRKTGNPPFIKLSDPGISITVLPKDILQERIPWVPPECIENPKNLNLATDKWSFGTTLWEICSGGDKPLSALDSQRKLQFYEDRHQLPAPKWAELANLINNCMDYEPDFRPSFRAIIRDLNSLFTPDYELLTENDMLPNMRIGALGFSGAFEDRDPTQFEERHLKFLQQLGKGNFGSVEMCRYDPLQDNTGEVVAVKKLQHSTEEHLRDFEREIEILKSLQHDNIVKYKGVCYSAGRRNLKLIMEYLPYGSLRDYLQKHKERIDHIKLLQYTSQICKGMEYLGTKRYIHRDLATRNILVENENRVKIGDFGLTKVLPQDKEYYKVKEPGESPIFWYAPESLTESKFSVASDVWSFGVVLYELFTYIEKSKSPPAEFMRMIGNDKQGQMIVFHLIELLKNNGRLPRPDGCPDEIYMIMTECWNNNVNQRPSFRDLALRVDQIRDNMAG
# Experimental: as §1, §2, §3, §4, §5
# [3] = target: T3, JAK1 (Homo sapiens, UniProt P23458); assay: JAK tyrosine kinase inhibitory activity in the presence of 1 mM ATP (ELISA), JAK1
# T3 construct: purchased Carna Biosciences, Inc
# T3 sequence (P23458 whole entry): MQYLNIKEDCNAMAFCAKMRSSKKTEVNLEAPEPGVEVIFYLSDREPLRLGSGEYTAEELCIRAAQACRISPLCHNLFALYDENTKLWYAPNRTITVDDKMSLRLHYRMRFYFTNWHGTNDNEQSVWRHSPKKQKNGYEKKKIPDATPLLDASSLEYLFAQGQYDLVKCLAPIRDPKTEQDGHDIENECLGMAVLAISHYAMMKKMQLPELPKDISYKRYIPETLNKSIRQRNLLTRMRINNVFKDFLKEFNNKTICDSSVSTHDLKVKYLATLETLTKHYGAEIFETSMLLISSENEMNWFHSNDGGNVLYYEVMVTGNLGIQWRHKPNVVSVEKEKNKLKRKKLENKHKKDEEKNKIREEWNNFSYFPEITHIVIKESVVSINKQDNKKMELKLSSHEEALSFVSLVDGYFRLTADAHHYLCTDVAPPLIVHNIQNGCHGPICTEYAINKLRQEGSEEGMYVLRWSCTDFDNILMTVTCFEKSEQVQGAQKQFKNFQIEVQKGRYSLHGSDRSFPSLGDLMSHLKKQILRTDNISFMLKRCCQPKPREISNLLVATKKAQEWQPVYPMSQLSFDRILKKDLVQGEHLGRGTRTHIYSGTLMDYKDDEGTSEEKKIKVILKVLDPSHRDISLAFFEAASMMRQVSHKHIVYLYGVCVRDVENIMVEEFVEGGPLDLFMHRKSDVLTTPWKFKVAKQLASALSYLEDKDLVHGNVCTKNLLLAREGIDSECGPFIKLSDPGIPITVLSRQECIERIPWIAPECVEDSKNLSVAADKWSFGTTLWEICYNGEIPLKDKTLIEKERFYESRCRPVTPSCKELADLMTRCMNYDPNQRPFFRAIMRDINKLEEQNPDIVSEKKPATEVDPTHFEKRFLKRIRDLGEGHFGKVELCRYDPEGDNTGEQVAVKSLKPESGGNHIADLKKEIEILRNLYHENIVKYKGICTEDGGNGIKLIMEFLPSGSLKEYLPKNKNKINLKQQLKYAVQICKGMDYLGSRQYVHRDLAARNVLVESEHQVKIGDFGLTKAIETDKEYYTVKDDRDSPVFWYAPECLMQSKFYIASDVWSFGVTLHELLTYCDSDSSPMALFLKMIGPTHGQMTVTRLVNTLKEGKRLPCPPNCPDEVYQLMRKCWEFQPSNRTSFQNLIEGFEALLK
# Experimental: as §1, §2, §3, §4, §5
IC50 [1] [nM],IC50 [2] [nM],IC50 [3] [nM],SMILES
2700,2100,570,"CC(=O)NC1CCN(C(=O)c2cc(N[C@@H](C)C3CC3)nc(-c3cnn4ccsc34)n2)CC1 [Example 2, N-(1-{[6-{[(1S)-1-Cyclopropylethyl]amino}-2-(pyrazolo[5,1-b][1,3]thiazol-7-yl)pyrimidin-4-yl]carbonyl}piperidin-4-yl)acetamide]"
3200,1400,62,"C[C@H](Nc1cc(C(=O)N2CCC(NC(=O)C3CC3)CC2)nc(-c2cnn3ccsc23)n1)C(C)(C)C [Example 3, N-(1-{[6-{[(2S)-3,3-Dimethylbutan-2-yl]amino}-2-(pyrazolo[5,1-b][1,3]thiazol-7-yl)pyrimidin-4-yl]carbonyl}piperidin-4-yl)cyclopropanecarboxamide]"
3000,730,210,"CC(=O)NC1CCN(C(=O)c2cc(N[C@@H](C)C(C)(C)C)nc(-c3cnn4ccsc34)n2)CC1 [Example 4, N-(1-{[6-{[(2S)-3,3-Dimethylbutan-2-yl]amino}-2-(pyrazolo[5,1-b][1,3]thiazol-7-yl)pyrimidin-4-yl]carbonyl}piperidin-4-yl)acetamide]"
1400,2500,130,"CN(c1cc(C(=O)N2CCC(NC(=O)C3CC3)CC2)nc(-c2cnn3ccsc23)n1)[C@H]1CCC[C@@H]1OC(F)F [Example 5, N-(1-{[6-{[(1S,2S)-2-(Difluoromethoxy)cyclopentyl](methyl)amino}-2-(pyrazolo[5,1-b][1,3]thiazol-7-yl)pyrimidin-4-yl]carbonyl}piperidin-4-yl)cyclopropanecarboxamide]"
2800,1800,240,"CC(=O)NC1CCN(C(=O)c2nc(-c3cnn4ccsc34)nc(N[C@@H](C)C(C)(C)C)c2C)CC1 [Example 6, N-(1-{[6-{[(2S)-3,3-Dimethylbutan-2-yl]amino}-5-methyl-2-(pyrazolo[5,1-b][1,3]thiazol-7-yl)pyrimidin-4-yl]carbonyl}piperidin-4-yl)acetamide]"
2700,> 10000,69,"Cc1c(N[C@@H](C)C(C)(C)C)nc(-c2cnn3ccsc23)nc1C(=O)N1CCC(NC(=O)C2CC2)CC1 [Example 7, N-(1-{[6-{[(2S)-3,3-Dimethylbutan-2-yl]amino}-5-methyl-2-(pyrazolo[5,1-b][1,3]thiazol-7-yl)pyrimidin-4-yl]carbonyl}piperidin-4-yl)cyclopropanecarboxamide]"
3800,2400,52,"O=C(NC1CCN(C(=O)c2cc(NCC3(COC(F)F)CC3)nc(-c3cnn4ccsc34)n2)CC1)C1CC1 [Example 8, N-[1-({6-[({1-[(Difluoromethoxy)methyl]cyclopropyl}methyl)amino]-2-(pyrazolo[5,1-b][1,3]thiazol-7-yl)pyrimidin-4-yl}carbonyl)piperidin-4-yl]cyclopropanecarboxamide]"
2000,960,19,"O=C(NC1CCN(C(=O)c2cc(NCC3(COC(F)F)CCC3)nc(-c3cnn4ccsc34)n2)CC1)C1CC1 [Example 9, N-[1-({6-[({1-[(Difluoromethoxy)methyl]cyclobutyl}methyl)amino]-2-(pyrazolo[5,1-b][1,3]thiazol-7-yl)pyrimidin-4-yl}carbonyl)piperidin-4-yl]cyclopropanecarboxamide]"
4800,2500,21,"O=C(NC1CCN(C(=O)c2cc(NCC3(COC(F)F)CCOCC3)nc(-c3cnn4ccsc34)n2)CC1)C1CC1 [Example 11, N-[1-({6-[({4-[(Difluoromethoxy)methyl]tetrahydro-2H-pyran-4-yl}methyl)amino]-2-(pyrazolo[5,1-b][1,3]thiazol-7-yl)pyrimidin-4-yl}carbonyl)piperidin-4-yl]cyclopropanecarboxamide]"
1800,2200,120,"Cc1c(N[C@@H](C)C2CC2)nc(-c2cnn3ccsc23)nc1C(=O)N1CCC(NC(=O)C2CC2)CC1 [Example 12, N-(1-{[6-{[(1S)-1-Cyclopropylethyl]amino}-5-methyl-2-(pyrazolo[5,1-b][1,3]thiazol-7-yl)pyrimidin-4-yl]carbonyl}piperidin-4-yl)cyclopropanecarboxamide]"
1600,2400,400,"CC(=O)NC1CCN(C(=O)c2nc(-c3cnn4ccsc34)nc(N[C@@H](C)C3CC3)c2C)CC1 [Example 13, N-(1-{[6-{[(1S)-1-Cyclopropylethyl]amino}-5-methyl-2-(pyrazolo[5,1-b][1,3]thiazol-7-yl)pyrimidin-4-yl]carbonyl}piperidin-4-yl)acetamide]"
1500,1700,69,"O=C(NC1CCN(C(=O)c2cc(N[C@H]3CCC[C@@H]3OC(F)F)nc(-c3cnn4ccsc34)n2)CC1)C1CC1 [Example 14, N-(1-{[6-{[(1S,2S)-2-(Difluoromethoxy)cyclopentyl]amino}-2-(pyrazolo[5,1-b][1,3]thiazol-7-yl)pyrimidin-4-yl]carbonyl}piperidin-4-yl)cyclopropanecarboxamide]"
–,7300,180,"COC(=O)NC1CCN(C(=O)c2cc(N[C@H](CO)C(C)(C)C)nc(-c3cnn4ccsc34)n2)CC1 [Example 63, Methyl (1-{[6-{[(2S)-1-hydroxy-3,3-dimethylbutan-2-yl]amino}-2-(pyrazolo[5,1-b][1,3]thiazol-7-yl)pyrimidin-4-yl]carbonyl}piperidin-4-yl)carbamate]"
–,3100,130,"COC(=O)NC1CCN(C(=O)c2cc(OC3CCC3)nc(-c3cnn4ccsc34)n2)CC1 [Example 65, Methyl (1-{[6-(cyclobutyloxy)-2-(pyrazolo[5,1-b][1,3]thiazol-7-yl)pyrimidin-4-yl]carbonyl}piperidin-4-yl)carbamate]"
–,> 10000,820,"COC(=O)NC1CCN(C(=O)c2cc(Oc3cccnc3)nc(-c3cnn4ccsc34)n2)CC1 [Example 156, Methyl (1-{[2-(pyrazolo[5,1-b][1,3]thiazol-7-yl)-6-(pyridin-3-yloxy)pyrimidin-4-yl]carbonyl}piperidin-4-yl)carbamate]"
1300,–,280,"C[C@H](Nc1cc(C(=O)N2CCC(NC(=O)C3CCCC3)CC2)nc(-c2cnn3ccsc23)n1)C1CC1 [Example 166, N-1-[6-[(1S)-1-cyclopropylethyl]amino-2-(pyrazolo[5,1-b][1,3]thiazol-7-yl)pyrimidine-4-carbonyl]piperidin-4-ylcyclopentanecarboxamide]"
